The record followed here is patent US20050008695A1, “Compositions and methods for delivering a biologically active agent” (Control Delivery Systems, Inc., priority 2003, published 2005).

A short description of series [1]: Hydrolysis rate (half-life) in human plasma. It is filed as in vitro ADME. The source says:
(§1) Hydrolysis Rate (half-life t½)
(§2) Hydrolysis Rate (half life t½)

Series [2] can be described thus: Hydrolysis rate (half-life) in buffer, pH 7.4. It is filed as physicochemical.
Text: as §1, §2

Series [3] in a line: Aqueous solubility compared with constituent drugs. To be noted: qualitative comparison with the unlinked drugs. In kind it is physicochemical.
Series [4] can be described thus: Lipophilicity compared with constituent drug. In kind it is physicochemical. To be noted: qualitative comparison.
The conditions of series [5]: not told.
Where [6] appears, read: read-out: Hydrolysis Rate (half-life t½) In Human Plasma.
[7] abbreviates: read-out: Hydrolysis Rate (half-life t½) In Buffer, pH7.4 (converted).
[8] abbreviates: read-out: Hydrolysis Rate (half life t½) In Human Plasma (converted).

SMILES strings stand for the structures.

Regarding `O=C(Cc1ccccc1Nc1c(Cl)cccc1Cl)OCc1oc(=O)oc1COC(=O)Cc1ccccc1Nc1c(Cl)cccc1Cl` [Diclofenac Dimer], the half-life in series [1] (setting [6]) is 0.1 h; in series [2] (setting [7]) it was 25 h.
Regarding `CC1(C)O[C@@H]2CC3C4C[C@H](F)C5=CC(=O)C=CC5(C)[C@@]4(F)CCC3(C)[C@]2(C(=O)COC(=O)Cc2ccccc2Nc2c(Cl)cccc2Cl)O1` (stereo partly shown) [Diclofenac-Fluocinolone Acetonide], the “Aqueous / water solubility relative to constituent drug(s)” value in series [3] was “lower solubility under aqueous conditions than either of the constituent drugs”. Moreover, the half-life is 168 h in series [1] (setting [8]) and 15 h in series [2] (setting [7]).
In the case of `CC1COc2c(N3CCN(C)CC3)c(F)cc3c(=O)c(C(=O)OCCOCCOC(=O)Cc4ccccc4Nc4c(Cl)cccc4Cl)cn1c23` (stereo not shown) [Diclofenac-Ofloxacin], the “Lipophilicity relative to constituent drug” value in series [4] was “more lipophilic than ofloxacin alone”. For the same compound, the half-life in series [1] (setting [8]) was 6.5 h. In series [2] (given in words, no number), the “Hydrolysis Rate (half life t½) In Buffer, pH7.4” value was “days”.
`O=C(Cc1ccccc1Nc1c(Cl)cccc1Cl)OCCOCCOCCOCCO` [Diclofenac-PEG4]: the “Lipophilicity relative to constituent drug” value in series [4] is recorded as “more lipophilic than the ionized form”. In addition, the “Aqueous / water solubility relative to constituent drug(s)” value in series [3] is on record as “higher water solubility than unionized diclofenac”. For the same compound, the half-life in series [1] (setting [6]) was 0.167 h; in series [2] (read-out: Hydrolysis Rate (half life t½) In Buffer, pH7.4 (converted)), 168 h.
Consider `O=C(O)Cc1ccccc1Nc1c(Cl)cccc1Cl.O=C(O)c1cn(C2CC2)c2cc(N3CCNCC3)c(F)cc2c1=O` [diclofenac-ciprofloxacin codrug], for which the Permeation entry in series [5] was “enhanced permeation”.

One may read the half-life as the time in which the quantity being followed falls by half.
